Measured values from US11974990B2, “TXNIP-TRX complex inhibitors and methods of using the same” (City of Hope, priority 2018, dated 2024).
Entries after “also recorded” stand apart in the source; their conditions may differ.

Key:
THP1 cells = assay: Differential gene expression analysis by RNA-seq in high glucose treated THP1 cells; type: cell-based, human; conditions: THP1, HG 25 mM 72 hr with vs without C1 5 uM
Description: FIG. 17. Hierarchical Clustering using differential expressed genes. Differential expression was calculated using these counts with edgeR (5, 6) version 3.0. After correcting for differences in library sizes, a fold change of >1.5 and a p-value of <0.05 were applied to select expressed genes. The corrected measures of the latter were further processed using Cluster3.0 (7) to generate a heatmap using Java TreeView. C=HG treated THP-1 cells (A, B are replicates); T=HG+C1 5 uM (C, D are replicates). […]
RNA-seq: Sequence alignment and gene counts. RNA-Seq reads were trimmed to remove sequencing adapters using Trimmomatic (Bolger et al., 2014), and polyA tails using FASTP (Chen et al., 2018). The processed reads were mapped to the human genome (hg19) using STAR software (v. 020201) (Dobin et al., 2013). […]
Differential gene expression analyses by RNA-seq. […] Differential expression analysis was conducted by adjusting read counts to normalized expression values using the TMM normalization method in edgeR package (Robinson et al., 2010). […] Next, Raw counts for each gene in the GENCODE coding gene annotation (hg19) were measured using HTseq (Anders and Huber, 2010) with an argument of “-r pos -s reserve”. Differential expression was calculated using these counts with edgeR (5, 6) version 3.0. […]

TXNIP mRNA = TXNIP mRNA expression (RT-PCR) in murine RAW macrophages; type: cell-based; conditions: RAW cells, 25 mM glucose, 72 h (FIG. 10A)
Description: FIGS. 10A-10B. FIG. 10A. […] RAW cells were cultured in 25 mM glucose with C1 (uM) for 72 h. Total RNA was prepared. RT-PCR was performed. Data shown are the mean+SEM from triplicates. Statistical analysis was performed for each column vs. high glucose (HG) DMSO using one-way ANOVA: *<0.0001. FIG. 10B. […] RAW cells were cultured in 25 mM glucose with C1 (uM) for 72 hours. Total RNA was prepared. RT-PCR was performed. Data shown are the mean+SEM from triplicates. Statistical analysis was performed for each column vs. HG DMSO using one-way ANOVA: *<0.0001.
(§1) RNA extraction and quantitative RT-PCR. RNA was extracted using the Direct-zol™ RNA MiniPrep Plus (Zymo Research). Reverse transcription of RNA samples into cDNA was performed using the GeneAmp RNA PCR Kit (Applied Biosystems), dNTP (from Roche Applied Science), Rnase inhibitor, MULV Reverse Transcriptase and Random hexamers reagent (all from Invitrogen). Diluted cDNA was quantified using real-time PCR performed with Power SYBR Green qPCR MasterMix (Applied Biosystem) and 7500 real-time PCR system (Applied Biosystems). The HPRT1 gene was used as an internal control.

TNF-α mRNA = TNF-α mRNA expression (RT-PCR) in human 1.1B4 pancreatic β cells; type: cell-based; conditions: 1.1B4 β cells, 25 mM glucose, 72 h (FIG. 12 right)
Description: FIG. 12. […] Human 1.1B4 β cells were cultured in 25 mM glucose with C1 (uM) for 72 h. Total RNA was prepared. RT-PCR was performed. Data shown are the mean+SEM from triplicates. Statistical analysis was performed for each column vs. HG DMSO using one-way ANOVA: *<0.0001.
as §1

With CC(C)C(C(=O)O)N1C(=O)c2ccncc2C1=O (stereo not drawn) [Compound C1, 2-(1,3-dioxo-1,3-dihydro-2H-pyrrolo[3,4-c]pyridin-2-yl)-3-methylbutanoic acid] the “TXNIP and TNF-α expression by RNA-seq” value (THP1 cells) was “suppressed TXNIP and TNF-α”, the “TXNIP mRNA expression” value (TXNIP mRNA) was “inhibits TXNIP mRNA expression; also recorded: inhibited TXNIP and TNF-α mRNA expression” and the “TNF-α mRNA expression” value (TNF-α mRNA) was “affects TXNIP and TNF-α mRNA expression; also recorded: decreased TNF-α expression”.
